Test results: patent US20080292588A1, “1-METHYL-BENZO[1,2,4]THIADIAZINE 1-OXIDE DERIVATIVES” (Anadys Pharmaceuticals, Inc., priority 2007, published 2008)
Read-outs that look alike come from different tables or passages of the source.

Biological target: HCV NS5B polymerase (Hepatitis C virus genotype 1b, UniProt Q9WMX2)
Assay: HCV NS5B polymerase inhibition assay (FlashPlate, [α-33P]GTP incorporation)
Assay type: biochemical
Procedure: Compounds were tested for HCV NS5B polymerase inhibition. Assays were performed in a 96-well streptavidin-coated FlashPlate using 20 nM enzyme, 1.4 μCi of [(α-^33P]GTP, 0.63 μM GTP, and 250 nM 5′biotinylated oligo (rG13)/poly rC in 20 mM Tris-HCl, pH 7.5, 5 mM MgCl2, 5 mM dithiothreitol, 0.1 g/L bovine serum albumin, and 100 U/ml RNAse inhibitor. The reaction was stopped by aspiration after 75 min at 28° C. and the plate was washed several times. After washing and drying the plate, incorporated radioactivity was counted using a Microbeta scintillation counter. IC50 values were calculated relative to the uninhibited control and inhibition data were fitted to a 4-parameter IC50 equation. For very potent inhibitors, the data were fitted to a tight binding quadratic equation to obtain IC50 values.

[1] = 20 nM enzyme, 75 min at 28° C., read-out: NS5B IC50
[2] = read-out: NS5B polymerase inhibition IC50

HCV NS5B polymerase, sequence (Q9WMX2 2420-3010): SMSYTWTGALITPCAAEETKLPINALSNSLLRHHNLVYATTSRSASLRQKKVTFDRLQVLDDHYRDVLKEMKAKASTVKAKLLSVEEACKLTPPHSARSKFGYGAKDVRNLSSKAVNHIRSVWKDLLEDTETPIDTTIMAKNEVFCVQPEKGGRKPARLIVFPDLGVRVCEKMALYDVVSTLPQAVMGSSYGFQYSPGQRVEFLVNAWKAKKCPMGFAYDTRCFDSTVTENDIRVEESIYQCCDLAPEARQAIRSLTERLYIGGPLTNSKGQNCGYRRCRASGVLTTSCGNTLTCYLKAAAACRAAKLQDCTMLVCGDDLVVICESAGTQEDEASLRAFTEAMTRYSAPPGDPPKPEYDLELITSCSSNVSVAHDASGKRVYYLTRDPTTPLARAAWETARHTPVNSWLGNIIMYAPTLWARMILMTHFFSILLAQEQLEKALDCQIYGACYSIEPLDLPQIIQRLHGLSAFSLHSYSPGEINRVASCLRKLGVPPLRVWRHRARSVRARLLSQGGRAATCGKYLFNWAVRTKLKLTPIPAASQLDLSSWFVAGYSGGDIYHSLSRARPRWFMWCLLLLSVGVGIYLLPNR

Structure (SMILES)	IC50 [1] [nM]	IC50 [2] [nM]
CS(=O)(=O)Nc1ccc2c(c1)S(C)(=O)=NC(C1=C(O)[C@H]3[C@H]([C@@H]4CC[C@H]3O4)N(Cc3ccc(F)cc3)C1=O)=N2 (mixture of isomers) [Compound 63, N-{3-[3-(4-fluoro-benzyl)-6-hydroxy-4-oxo-11-oxa-3-aza-tricyclo[6.2.1.0^2,7]undec-5-en-5-yl]-1-methyl-1-oxo-1λ^6-benzo[1,2,4]thiadiazin-7-yl}-methanesulfonamide]	< 1000	< 1000
CC[C@H]1CC(O)=C(C2=Nc3ccc(NS(C)(=O)=O)cc3S(C)(=O)=N2)C(=O)N1Cc1ccc(F)cc1 (mixture of isomers) [Compound 75, N-{3-[6-(S)-Ethyl-1-(4-fluoro-benzyl)-4-hydroxy-2-oxo-1,2,5,6-tetrahydro-pyridin-3-yl]-1-methyl-1-oxo-1λ^6-benzo[1,2,4]thiadiazin-7-yl}-methanesulfonamide]	< 1000	< 1000
CC(C)(C)CC[C@@]1(C)C(=O)C(C2=Nc3ccc(NS(C)(=O)=O)cc3S(C)(=O)=N2)=C(O)c2ccccc21 (mixture of isomers) [Compound 36, N-{3-[4-(3,3-dimethyl-butyl)-1-hydroxy-4-methyl-3-oxo-3,4-dihydro-naphthalen-2-yl]-1-methyl-1-oxo-1λ^6-benzo[1,2,4]thiadiazin-7-yl}-methanesulfonamide]	< 1000	< 1000
CC(C)(C)CCn1nc(-c2cccs2)c(O)c(C2=Nc3ccc(NS(C)(=O)=O)cc3[S@@](C)(=O)=N2)c1=O [Compound 23]	< 1000	< 1000
CC(C)(C)CCn1nc(-c2cccs2)c(O)c(C2=Nc3ccc(NS(C)(=O)=O)cc3[S@](C)(=O)=N2)c1=O [Compound 24]	1000 to 100000	< 100000
CC(C)(C)CCn1nc(N2CCCC2)c(O)c(C2=Nc3ccc(NS(C)(=O)=O)cc3S(C)(=O)=N2)c1=O (stereo not drawn) [Compound 28, N-{3-[2-(3,3-dimethyl-butyl)-5-hydroxy-3-oxo-6-pyrrolidin-1-yl-2,3-dihydro-pyridazin-4-yl]-1-methyl-1-oxo-1λ^6-benzo[1,2,4]thiadiazin-7-yl}-methanesulfonamide]	< 1000	< 1000
CS(=O)(=O)Nc1ccc2c(c1)S(C)(=O)=NC(C1=C(O)[C@@H]3[C@H]4CC[C@H](C4)[C@@H]3N(Cc3ccc(F)cc3)C1=O)=N2 (stereo partly drawn) [Compound 54, N-{3-[3-(4-fluoro-benzyl)-6-hydroxy-4-oxo-3-aza-tricyclo[6.2.1.0^2,7]undec-5-en-5-yl]-1-methyl-1-oxo-1λ^6-benzo[1,2,4]thiadiazin-7-yl}-methanesulfonamide]	< 1000	< 1000

Continued, values first:

IC50 [1] [nM]	IC50 [2] [nM]	Structure (SMILES)
< 1000	< 1000	CC(C)(C)CCn1nc(-c2cccs2)c(O)c(C2=Nc3ccc(NS(C)(=O)=O)cc3S(C)(=O)=N2)c1=O (racemic) [Compound 22, N-{3-[2-(3,3-dimethyl-butyl)-5-hydroxy-3-oxo-6-thiophen-2-yl-2,3-dihydro-pyridazin-4-yl]-1-methyl-1-oxo-1l6-benzo[1,2,4]thiadiazin-7-yl}-methanesulfonamide]
< 1000	< 1000	CC(C)(C)[C@H]1C(O)=C(C2=Nc3ccc(NS(C)(=O)=O)cc3S(C)(=O)=N2)C(=O)N1Cc1ccc(F)c(Cl)c1 (stereo in doubt) [Compound 32, N-{3-[5-tert-butyl-1-(3-chloro-4-fluoro-benzyl)-4-hydroxy-2-oxo-2,5-dihydro-1H-pyrrol-3-yl]-1-methyl-1-oxo-1λ^6-benzo[1,2,4]thiadiazin-7-yl}-methanesulfonamide]
1000 to 100000	< 100000	CS1(=O)=NC(C2=C(O)[C@@H]3CCC[C@@H]3N(Cc3ccc(F)cc3)C2=O)=Nc2ccccc21 (stereo in doubt) [Compound 68, 1-(4-fluoro-benzyl)-4-hydroxy-3-(1-methyl-1-oxo-1λ^6-benzo[1,2,4]thiadiazin-3-yl)-1,4a,5,6,7,7a-hexahydro-[1]pyrindin-2-one]
< 1000	< 1000	CC(C)(C)CC[C@@]1(C)C(=O)C(C2=Nc3ccc(NS(C)(=O)=O)cc3[S@@](C)(=O)=N2)=C(O)c2ccccc21 [Compound 37]
< 1000	< 1000	CC(C)(C)CC[C@@]1(C)C(=O)C(C2=Nc3ccc(NS(C)(=O)=O)cc3[S@](C)(=O)=N2)=C(O)c2ccccc21 [Compound 38]
